According to paper PMC12005989, “Purification, identification, and in silico screening of a multifunctional octapeptide from semen armeniacae glutelin-2 hydrolysates: restraining mechanisms to Keap1 and ACE, stability, and ferrous-transport efficiency” (Frontiers in Nutrition, 2025):
Ends that are not written are not given here.

What was measured:
[1] = Hydroxyl radical quenching, β-deoxyribose oxidation method; details: 100 μg/mL, mean ± SD, triplicate
Experimental: Next, the purification of BAG-2H is a two-step process: first, BAG-2H solution (1 g/L) was subjected to ultra-filtration on an ultra-membrane (filter aperture of 220 nm, Jingfei Membrane Equipment Factory, Luzhou, China). Next, the ultra-filtrate solution (2 mL) was chromatographically purified citing the modified procedures from Li et al. ([30]). Pre-balanced G-15 gel was loaded into a HS-MG-125 chromatographic column (Huasheng Chromatography Tech. Co., Ltd., Wuxi, China). After the BAG-2H ultra-filtrate solution has completely sunk into the column plane, the gel chromatographic column was sealed and eluted using dH2O with a constant velocity of 2.4 mL/min and monitor wavelength of 220 nm. An automatic collector (BT-160I, Thirdli Collection Equipment Co., Ltd., Guangzhou, China) was used to collect the elution, and the collection tube was changed every 5 min ([34]). After 400 min, the profiles of absorbance at 220 nm against elution time were drawn, and the separation fractions were freeze-dried using the EHI-220D lyophilizer. The ACE-inhibitory, ferrous-binding, and hydroxyl radical quenching abilities of the separation fractions were detected citing the hippuric acid ([50]), […]. During screening of the separation fractions, ACE-inhibitory and hydroxyl radical quenching abilities were the primary indexes, and the amino acid sequences of the selected fraction were analyzed.
The free radical quenching ability of samples, including superoxide, 2,2′-hydrazine-bis (3-ethylbenzothiazolin-6-sulfonic acid) diamine salt cation (ABTS^+), and hydroxyl radicals, was determined using the pyrogallol auto-oxidation, potassium persulfate, and β-deoxyribose oxidation methods, according to the same procedures from Tyagi et al. ([6]), Lin et al. ([2]), and Wang et al. ([35]), respectively. […]
Physicochemical properties and functionalities of BAG-2H peptides, including antihypertension and antioxidant activity, were in silico analyzed with the AHTpin^2 and Peptide Ranker server^3 databases ([39]), respectively. […]

[2] = biological target: T1, angiotensin-I-converting enzyme (ACE) (Oryctolagus cuniculus, UniProt P12822); test: ACE restraining capacity, hippuric acid method; assay type: biochemical, Rabbit; details: substrate HHL, absorbance 228 nm, IC50 from regression of inhibition against concentration, tests in triplicate, read-out: ACE-inhibitory activity (IC50)
T1 construct: Rabbit lungs ACE (0.1 U) was obtained from Sigma-Aldrich (St. Louis, MO, USA); purchased Sigma-Aldrich (St. Louis, MO, USA); host or cells: rabbit lung (tissue-derived)
T1 sequence (P12822 34-1310): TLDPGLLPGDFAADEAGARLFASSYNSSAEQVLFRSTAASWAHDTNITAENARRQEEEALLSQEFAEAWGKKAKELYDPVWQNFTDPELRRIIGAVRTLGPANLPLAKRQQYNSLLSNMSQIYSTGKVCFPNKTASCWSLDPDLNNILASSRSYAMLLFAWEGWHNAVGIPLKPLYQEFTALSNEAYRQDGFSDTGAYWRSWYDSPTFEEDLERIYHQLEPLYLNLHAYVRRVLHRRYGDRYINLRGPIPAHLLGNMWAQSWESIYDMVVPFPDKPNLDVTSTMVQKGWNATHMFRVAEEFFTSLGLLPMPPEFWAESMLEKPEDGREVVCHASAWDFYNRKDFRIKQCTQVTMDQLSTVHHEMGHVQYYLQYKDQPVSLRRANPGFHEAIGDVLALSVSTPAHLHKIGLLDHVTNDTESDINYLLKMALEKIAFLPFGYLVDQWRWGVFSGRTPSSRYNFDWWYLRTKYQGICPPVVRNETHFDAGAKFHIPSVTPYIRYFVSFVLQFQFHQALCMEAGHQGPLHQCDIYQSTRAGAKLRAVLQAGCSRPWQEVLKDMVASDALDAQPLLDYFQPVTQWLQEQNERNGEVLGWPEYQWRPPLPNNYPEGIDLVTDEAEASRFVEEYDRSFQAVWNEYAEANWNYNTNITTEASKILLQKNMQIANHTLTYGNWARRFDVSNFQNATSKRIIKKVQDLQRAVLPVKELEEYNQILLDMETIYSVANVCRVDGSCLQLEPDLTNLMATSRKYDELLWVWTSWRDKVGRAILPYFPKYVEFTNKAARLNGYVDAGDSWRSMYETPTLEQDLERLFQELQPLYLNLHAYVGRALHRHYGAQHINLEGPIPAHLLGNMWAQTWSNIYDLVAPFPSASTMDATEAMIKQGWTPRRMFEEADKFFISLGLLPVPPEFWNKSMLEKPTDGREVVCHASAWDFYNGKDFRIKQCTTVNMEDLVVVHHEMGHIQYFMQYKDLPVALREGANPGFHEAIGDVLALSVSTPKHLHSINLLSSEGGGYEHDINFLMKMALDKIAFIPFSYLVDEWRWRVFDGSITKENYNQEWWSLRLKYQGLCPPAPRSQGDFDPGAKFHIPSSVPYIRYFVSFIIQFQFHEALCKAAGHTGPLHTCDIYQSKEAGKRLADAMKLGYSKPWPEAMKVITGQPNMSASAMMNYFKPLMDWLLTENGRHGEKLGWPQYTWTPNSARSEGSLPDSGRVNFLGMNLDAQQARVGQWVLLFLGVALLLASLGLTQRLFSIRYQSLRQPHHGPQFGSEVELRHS
Source text: The hippuric acid method ([50]) was used to measure the samples’ restraining capacity against ACE citing the same procedures from Zheng et al. ([34]). The absorbance of the reaction solution at 228 nm was the hippuric acid content and was proportional to ACE activity; therefore, the restraining capacity of samples toward ACE was defined as the percentage reduction in the absorption at 228 nm between the control and sample groups.

For “PVDFAGFY-ferrous chelate: ferrous chelate of PVDFAGFY prepared with ferrous chloride (also: ferrous chelate)”, the “·OH scavenging activity, before gastrointestinal” value [1] was 79.37%, the “·OH scavenging activity, before gastrointestinal” value ([1]; listed as PVDFAGFY-Fe) was 79.37% ± 4.21%b and the IC50 [2] was 101 µM.
